In experiment [1] the test system is M2R. The following applies: 1 mM ligand, buffer exchange without ligand; cited from earlier work.
The target of experiment [2] is T1, M2R (Homo sapiens, UniProt P08172).
T1 construct: expressed in transfected cells; host or cells: HEK293A
T1 sequence (P08172 1-466): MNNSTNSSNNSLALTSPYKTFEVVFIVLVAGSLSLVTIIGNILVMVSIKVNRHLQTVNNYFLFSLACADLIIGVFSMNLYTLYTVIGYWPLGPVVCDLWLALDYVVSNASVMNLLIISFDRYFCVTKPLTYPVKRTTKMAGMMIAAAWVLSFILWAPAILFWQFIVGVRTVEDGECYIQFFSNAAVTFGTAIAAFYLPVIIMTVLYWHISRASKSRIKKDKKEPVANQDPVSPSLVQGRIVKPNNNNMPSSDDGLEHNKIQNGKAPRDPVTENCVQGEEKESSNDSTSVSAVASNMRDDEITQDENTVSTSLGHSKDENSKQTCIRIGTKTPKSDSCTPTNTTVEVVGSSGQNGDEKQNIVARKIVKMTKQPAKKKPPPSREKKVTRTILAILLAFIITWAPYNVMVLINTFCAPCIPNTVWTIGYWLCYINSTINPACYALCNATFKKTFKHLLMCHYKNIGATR
As to the kind of experiment: NanoBiT G-protein dissociation assay (Gi activation). The following applies: HEK293A cells expressing M2R and NanoBiT-Gi1; for Gi-protein activity relative to ACh (in words): Fig. 3a. In kind it is cell-based. As for the experimental part:
M2R-induced G-protein dissociation was measured by a NanoBiT-G-protein dissociation assay, in which the interaction between a Gα subunit and a Gβγ subunit was monitored by the NanoBiT system (Promega). Specifically, a NanoBiT-Gi1 protein consisting of Gαi1 subunit fused with a large fragment (LgBiT) at the α-helical domain and an N-terminally small fragment (SmBiT)-fused Gγ2 subunit with a C68S mutation was expressed along with untagged Gβ1 subunit and M2R. HEK293A cells were seeded in a 10-cm culture dish at a concentration of 2 × 10^5 cells mL^−1 (10 mL per well in DMEM (Nissui) supplemented with 10% fetal bovine serum (Gibco), glutamine, penicillin, and streptomycin), 1 day before transfection. Transfection solution was prepared by combining 25 µL (per dish hereafter) of polyethylenimine (PEI) Max solution (1 mg mL^−1; Polysciences), 1 mL of Opti-MEM (Thermo Fisher Scientific), and a plasmid mixture consisting of 1 µg M2R (or an empty plasmid for mock transfection), 500 ng LgBiT-containing Gαi1 subunit, 2.5 µg Gβ1 subunit, and 2.5 µg SmBiT-fused Gγ2 subunit (C68S). After an incubation for 1 day, the transfected cells were harvested with 0.5 mM EDTA-containing Dulbecco’s PBS, centrifuged and suspended in 10 mL of HBSS containing 0.01% bovine serum albumin (BSA; fatty acid–free grade; SERVA) and 5 mM HEPES (pH 7.4) (assay buffer). The cell suspension was dispensed in a white 96-well plate at a volume of 80 µL per well and loaded with 20 µL of 50 µM coelenterazine (Carbosynth) diluted in the assay buffer. After a 2 h incubation at room temperature, the plate was measured for baseline luminescence (Spectramax L, Molecular Devices) and a titrated test ligand (20 µL; […] of final concentrations) was manually added. The plate was immediately read at room temperature for the following 5 min as a kinetics mode, at measurement intervals of 20 s. The luminescence counts over 3–5 min after ligand addition were averaged and normalized to the initial count. The fold-change values were further normalized to that of vehicle-treated samples and used to plot the G-protein dissociation response. Using the Prism 8 software (GraphPad Prism), the G-protein dissociation signals were fitted to a four-parameter sigmoidal concentration-response curve.

Experiment [3] relates to M2R. As to the kind of experiment: Ligand binding-induced difference ATR-FTIR spectroscopy, amide-I band. The following applies: lipid-reconstituted M2R-BRIL, 293 K; for population of active-like M2R conformation from amide-I band ratio (in words): 1 mM ligand; for ligand efficacy class suggested by amide-I spectral features: H2O, compared with Scop- and NMS-bound spectra. More on the design: species or system human. The protocol: Red and purple lines correspond to ACh- and Atro-bound spectra, respectively. To quantitatively examine the change in the amide-I band specific to ligand efficacy, the ratio between the band strength of (2)1656 (+)/(1)1666 (−) cm^−1 of ACh-bound spectra at high frequency and (2)1656 (+)/(3)1640 (−) cm^−1 of ACh-bound spectra at low frequency is calculated and reported as efficacy rate. b Ligand-dependent spectral changes of amide-I band originating from C=O stretch of α-helix in 1700–1620 cm^−1 region. Red, orange, and purple lines correspond to agonist-, partial agonist-, and antagonist-bound spectra, respectively. […] The error values were calculated from three replicate experiments. Cyan dotted line indicates the value = 1.
The ratio of the amide-I band was assumed to be the ligand efficacy (Fig. 2b, c). Strikingly, all agonists have an amide-I band ratio >1. The amide-I band ratio for both the partial agonists and the antagonists were <1, with the exception of Xano.
A 2 μL aliquot of the lipid-reconstituted M2R suspensions was placed on the surface of a silicon ATR crystal (three internal total reflection, Smith Detection, UK. After it was dried in a gently natural drying, the sample was rehydrated with a solvent containing 200 mM phosphate (pH 7.5) buffer with 140 mM NaCl, 3 mM MgCl2 at a flow rate of 0.6 mL min^−1 through a flow cell, of which the temperature was maintained at 20 °C by circulating water. ATR-FTIR spectra were first recorded at 2 cm^−1 resolution, using an FTIR spectrometer (Bio-rad FTS7000, Agilent, CA, USA) equipped with a liquid nitrogen-cooled MCT detector (an average of 768 interferograms). After the FTIR spectrum had been recorded in the second buffer with 1 mM ligand, the difference FTIR spectrum was calculated by subtracting the data obtained for the first and second buffer. The cycling procedure was repeated two to seven times, and the difference spectra were calculated as the average of the presence minus absence spectra of ligand. The spectral contributions of the unbound ligand, the protein/lipid shrinkage, and water/buffer components were corrected (Supplementary Figure 2–5).

Experiment [4] has as its system M2R. On the set-up: method as in PMID 23441648. The following applies: super agonist of M2R; cited from earlier work.
Experiment [5] concerns M2R. As to the kind of experiment: Ligand dissociation kinetics from time-course ATR-FTIR (amide-I band). It is filed as binding, human. The following applies: 1 mM ligand washed out by buffer exchange, 0.6 mL min-1, 20 °C; single exponential fit. As for the experimental part:
Each ligand (1 mM concentration) is added at 30 min time point and is washed out at 90 min time point by exchanging to the buffer without ligand at a flow rate of 0.6 mL min^−1 through a flow cell, of which the temperature is maintained at 20 °C by circulating water. […] Ligand dissociation phase is highlighted by light blue. b Time trace of the integrated absorbance signal at dissociation phase in the amide-I band for each ligand. […] Dotted lines represent the fitting curve obtained by single exponential function.
After the FTIR spectrum had been recorded in the second buffer with 1 mM ligand, the difference FTIR spectrum was calculated by subtracting the data obtained for the first and second buffer. The cycling procedure was repeated two to seven times, and the difference spectra were calculated as the average of the presence minus absence spectra of ligand. The spectral contributions of the unbound ligand, the protein/lipid shrinkage, and water/buffer components were corrected (Supplementary Figure 2–5).
All functional and statistical data were analyzed using GraphPad Prism v.9.0 (Graphpad Software) and shown as mean ± s.e.m. from at least three independent experiments. Dissociation kinetics curves were evaluated with a single exponential function.

For the molecule `CC(=O)OCC[N+](C)(C)C` [ACh, acetylcholine], in the experiment with M2R [1], the “amide-I band intensity during dissociation phase after buffer exchange” value is on record as “decreased gradually”. Turning to `CN1[C@@H]2CC[C@H]1C[C@@H](OC(=O)C(CO)c1ccccc1)C2` (some centres unmarked) [Atro, atropine], the “amide-I band intensity during dissociation phase after buffer exchange” value with M2R [1] is “did not decrease”. As to `C[N+](C)(C)CCOC(N)=O` [Carb, Carbamylcholine], the “Gi-protein activity relative to ACh (in words)” value on M2R [2] was “almost identical Gi-protein activity as ACh”.

Take `CC(C)[N+]1(C)[C@@H]2CC[C@H]1C[C@@H](OC(=O)C(CO)c1ccccc1)C2` (some centres unmarked) [Ipra, Ipratropium]: the “Gi-dissociation activity (Emax normalized to ACh)” value on M2R [2] (Span normalized to ACh) is given as 6.3 % of ACh. Further, in the experiment on M2R [3], the “population of active-like M2R conformation from amide-I band ratio (in words)” value was “higher ratio of active conformation than Atro and Scop”. Take `C[N+](C)(C)CC#CCOC1=NOCC1` [Ixo, Iperoxo]: the “Gi-protein activity relative to ACh (in words)” value on M2R [2] was “higher G-protein activation than ACh”. Moreover, the “potency relative to ACh” value with M2R [4] is 100 fold. Also, the “dissociation kinetics (koff) from M2R (in words)” value (shortened to “dissociation kinetics (koff)”) in the experiment with M2R [5] is “slowest dissociation kinetics”.

Consider `C[N+](C)(C)CC#CCOC(=O)Nc1cccc(Cl)c1` [McN, McN-A-343], for which the “Gi-protein activity relative to ACh (in words)” value at M2R [2] is “decreased Gi signalling relative to ACh”. Moreover, in the experiment on M2R [5], the “dissociation kinetics (koff)” value is recorded as “fast dissociation kinetics”. Turning to `CC(=O)OC(C)C[N+](C)(C)C` (centres unmarked) [Meta, Metacholine], the “Gi-protein activity relative to ACh (in words)” value at M2R [2] was “almost identical Gi-protein activity as ACh”. Turning to `CCCC[N+]1(C)C2CC(OC(=O)C(CO)c3ccccc3)CC1C1OC12` (centres unmarked) [NBS, N-butylscopolamine], in the experiment on M2R [3], the “ligand efficacy class suggested by amide-I spectral features” value is recorded as “antagonist”. The same measure, in the same setting: under `CC[N+]1(C)[C@@H]2CC(OC(=O)[C@H](CO)c3ccccc3)C[C@H]1[C@@H]1O[C@@H]12` (some centres unmarked) [Oxitro, Oxitropium] stands “inverse agonist”. In the case of `CN1[C@@H]2C[C@@H](OC(=O)[C@H](CO)c3ccccc3)C[C@H]1[C@@H]1O[C@@H]12` [Scop, Scopolamine], the “Gi-protein activity relative to ACh (in words)” value at M2R [2] was “undetectable”. For the molecule `CCCCCCOc1nsnc1C1=CCCN(C)C1` [Xano, Xanomeline], the “Gi-protein activity relative to ACh (in words)” value at M2R [2] was “decreased Gi signalling relative to ACh”. In addition, the “population of active-like M2R conformation from amide-I band ratio (in words)” value with M2R [3] is recorded as “higher population of active-like M2R conformation”. The “dissociation kinetics (koff)” value in the experiment with M2R [5] is given as “extremely slow”.

The values above are taken from publication PMC8635417 (Communications Biology, 2021).
